Laboratory results taken from patent EP4178959B1, “NITROGEN HETEROCYCLIC CYTOKININ DERIVATIVES, COMPOSITIONS CONTAINING THESE DERIVATIVES AND USE THEREOF” (Univerzita Palackého v Olomouci, priority 2020, dated 2022).

Experiments:
Arabidopsis thaliana = test: Effect on the root proliferation of Arabidopsis thaliana; assay type: in vivo, Arabidopsis thaliana (ecotype Columbia); details: for Concentration with highest activity: number of lateral roots; for Activity (%) [10^-8 mol.l^-1 Kin = 100%]: number of lateral roots (% of control), at concentration with highest activity
Method: Arabidopsis thaliana seeds (ecotype Columbia) were sterilized with 70% ethanol and 0.1% Triton X-100 and then washed with 70% ethanol containing 0.01% Triton X-100. Then the seeds were transferred to vertical square petri dishes (11 seeds per dish) on a solid medium consisting of MS (2.15 g/l), MES (0.5 g/l), sucrose (1 g/l), agar (11 g/l), buffered to pH 5.8, and various concentrations of tested compounds. The compounds were dissolved in DMSO, thus 0.05% DMSO was used as a control solution. After incubation for 3 days in darkness at 4°C, the seeds were germinated and grown in an environmental chamber (fluorescence light intensity 150 µE m^-2 s^-1, humidity 55%, 16 h day/8 h night, 22°C). […] The number of lateral roots was scored under a stereomicroscope. […] In addition, compounds with tetrahydropyranyl protection at N9 slightly increase the number of emerged lateral roots (Fig 3C). […] Table 6: […]

excised wheat leaf tips = test: Senescence inhibition on winter wheat leaf segments (chlorophyll retention); parameters: species or system Triticum aestivum cv. Hereward; details: for Concentration with highest activity: retention of chlorophyll; for Activity (%) [10^-4mol.l^-1 KTHP = 100%] / Emax: retention of chlorophyll in excised wheat leaf tips, 96 h in the dark, at concentration with highest activity; for Emax: Triticum aestivum, foliar, read-out: Activity (%) [10^-4mol.l^-1 KTHP = 100%]
Method: Seeds of winter wheat, Triticum aestivum cv. Hereward, were washed under running water for 24 hours and then sown on vermiculite soaked with the Knop's solution. They were placed in the grow chamber at 25 °C with a 16/8 h light period at 50 μmol.m^-2.s^-1. After 7 days, the first leaf was fully developed and the second leaf had started to grow. A tip section of the first leaf, approximately 35 mm long, was removed from 5 seedlings and trimmed slightly to a combined weight of 100 mg. The basal ends of the five leaf tips were placed in the wells of a microtiter polystyrene plate containing 150 μl of the solution of the tested compound each. The entire plate was inserted into a plastic box lined with paper tissues soaked with distilled water to prevent leaf sections from drying out. […] The absorbance of the extract was recorded at 665 nm. In addition, chlorophyll extracts from fresh leaves and leaf tips incubated in deionised water were measured. From the obtained data, the concetration with the highest activity was selected for each compound tested. Relative activity of the compound at this concentration was calculated (Table 7). […] The values shown are means of five replicates and the whole experiment was repeated twice. The compounds to be tested were dissolved in dimethylsulfoxide (DMSO) and the solution brought up to 10^-3 M with distilled water. […] The compounds listed in Table 7 can be divided into 2 groups. The first group contains "classical 6,9-disubstituted purines (KTHP as a control)" known in prior art. […] Table 9: […]

[1] = Calcein AM cytotoxicity assay, NIH3T3 cells; details: mouse; for CC50 at 72 h: nih3t3 cells
Method: (§1) All compound concentrations were examined in duplicates. […] Zero cytotoxicity is a basic prerequisite for the use of these substances in cosmetical applications. To assess the antitumor activity, the toxicity of new derivatives on panels containing cell lines of different histogenic and species origin was tested (Table 5). […] The compounds listed in Table 5 can be divided into 2 groups.
(§2) The first group contains "classical cytokinins" represented by 6-substituted purines (their effects are already known). The second group includes novel 2-fluoro-N6-substituted-9-(2-oxacycloalkyl)-9H-purine-6-amine derivatives. […] Low cytotoxicity (high IC50 value) of the compounds is the basic prerequisite for cosmetic and medical applications. […] Table 5: Cytotoxicity of novel compounds for different normal cell lines tested / IC50 (µmol/L)

[2] = Calcein AM cytotoxicity assay, BJ cells; details: human; for CC50 at 72 h: bj fibroblasts
Method: as §1, §2

[3] = Calcein AM cytotoxicity assay, B10A.4 cells; details: mouse; for CC50 at 72 h: b10a.4 macrophages
Method: as §1, §2

Zea mays seedlings = test: Effect on development of Zea mays seedlings (hydroponic); assay type: in vivo, Zea mays cv. CELLUX; details: for Root dry mass (%) [4 x 10^-8 mol.l^-1 Kin = 100%] / Shoot dry mass (%) [10^-6 mol.l^-1 Kin = 100%]: at concentration with highest activity
Method: Maize seeds (Zea mays cv. CELLUX) were imbibed in tap water and germinated on a wetted filter paper. After 3 days, the germinated seedlings were transferred to aerated hydroponic tanks filled with Hoagland's nutrient solution. The plants were grown in an environmental chamber with 16 h light period (250 μE m^-2 s^-1) at 27°C and 8 h dark period at 20°C. Tested compounds diluted in DMSO were added to nutrient solution immediately when seedlings were nested in the tanks or after two additional days of cultivation. Control plants were grown in parallel with addition of corresponding amount of DMSO (up to 0.01%). Root and leaf tissues of ten plants were harvested at different time points after the application of the compounds, immediately frozen in liquid nitrogen and used for cytokinin content and transcript level analysis. Length of primary root and the first leaf were determined with ruler on sets of twelve plants, each cultivated in the independent tank (for every cytokinin application repeated ten times). Dry mass of root system and the aerial part was determined after cutting off the kernel and desiccation in dryer for two days at 60°C. […] Fig. 4) and up to 1 micromolar concentration when more seedlings were in the solution (approx. 50 seedlings per 1 liter; Fig. 5). […] Table 7: […]

[4] = Cytotoxicity IC50, B10A.4, first column headed B10A.4

| Structure (SMILES) | root elongation and branching (in words) (Arabidopsis thaliana; already in micromolar concentration) | Concentration with highest activity (excised wheat leaf tips) | Activity (%) [10^-4mol.l^-1 KTHP = 100%] (excised wheat leaf tips) | CC50 at 72 h [1] [µM] | CC50 at 72 h [2] [µM] | CC50 at 72 h [3, 4] [µM] | CC50 at 72 h ([3]; Cytotoxicity IC50, B10A.4, second column headed B10A.4) [µM] | root elongation and lateral root proliferation (in words) (Zea mays seedlings; up to 1 µM concentration) | Emax (excised wheat leaf tips) [%] | IC50 at 72 h [1] [µM] | Concentration with highest activity (Arabidopsis thaliana) | Activity (%) [10^-8 mol.l^-1 Kin = 100%] (Arabidopsis thaliana) | IC50 at 72 h [2] [µM] | IC50 at 72 h [3, 4] [µM] | Root dry mass (%) [4 x 10^-8 mol.l^-1 Kin = 100%] (Zea mays seedlings) | Shoot dry mass (%) [10^-6 mol.l^-1 Kin = 100%] (Zea mays seedlings) | Concentration with highest activity (Zea mays seedlings; root dry mass) | Concentration with highest activity (Zea mays seedlings; shoot dry mass) |
| --- | --- | --- | --- | --- | --- | --- | --- | --- | --- | --- | --- | --- | --- | --- | --- | --- | --- | --- |
| COc1cccc(CNc2ncnc3nc[nH]c23)c1 [6-(3-methoxybenzylamino)purine, reference compound] | significantly inhibits root elongation and branching |  |  |  |  |  |  |  |  |  |  |  |  |  |  |  |  |  |
| CC(C)=CCNc1nc(F)nc2c1ncn2C1CCCO1 (stereo not drawn) [Compound 13] |  | 10^-4 mol.l^-1 | 109.8 (± 13) % | > 167 | > 167 | > 167 | > 167 | does not inhibit root elongation and lateral root proliferation |  |  |  |  |  |  |  |  |  |  |
| Oc1cccc(CNc2nc(F)nc3c2ncn3C2CCCO2)c1 (stereo not drawn) [Compound 15, 2-Fluoro-6-[(3-hydroxybenzyl)amino]-9-(tetrahydrofuran-2-yl)-9H-purine] |  |  |  |  |  |  |  |  | 133 | > 167 | 10^-5 mol.l^-1 | 24.8 (± 4) % | > 167 | > 167 | 201.4 (± 22) % | 124.3 (± 8) % | 10^-7 mol.1^-1 | 10^-6 mol.1^-1 |
| COc1ccccc1CNc1nc(F)nc2c1ncn2C1CCCO1 (stereo not drawn) [Compound 17, 2-Fluoro-6-[(2-methoxybenzyl)amino]-9-(tetrahydrofuran-2-yl)-9H-purine] |  |  |  |  |  |  |  |  | 104 | > 167 | 10^-5 mol.l^-1 | 30.7 (± 7) % | > 167 | > 167 | 241.5 (± 19) % | 139.8 (± 7) % | 10^-7 mol.1^-1 | 10^-6 mol.1^-1 |
| COc1cccc(CNc2nc(F)nc3c2ncn3C2CCCO2)c1 (stereo not drawn) [Compound 18] |  | 10^-4 mol.l^-1 | 175.8 (± 10) % | > 167 | > 167 | > 167 |  |  |  |  | 10^-5 mol.l^-1 | 28.6 (± 2) % |  |  | 240.6 (± 22) % | 148.2 (± 8) % | 10^-7 mol.1^-1 | 10^-6 mol.1^-1 |
| Oc1cc(Cl)cc(CNc2nc(F)nc3c2ncn3C2CCCO2)c1 (stereo not drawn) [Compound 27] |  |  |  |  |  |  |  |  |  |  | 10^-5 mol.l^-1 | 45.7 (± 6) % |  |  | 194.5 (± 18) % | 116.3 (± 7) % | 10^-7 mol.1^-1 | 10^-6 mol.1^-1 |
| Oc1cc(F)cc(CNc2nc(F)nc3c2ncn3C2CCCO2)c1 (stereo not drawn) [Compound 28] |  |  |  |  |  |  |  |  |  |  | 10^-5 mol.l^-1 | 49.3 (± 9) % |  |  | 190.2 (± 20) % | 111.8 (± 6) % | 10^-7 mol.1^-1 | 10^-6 mol.1^-1 |
| Fc1nc(NCc2ccco2)c2ncn(C3CCCCO3)c2n1 (stereo not drawn) [Compound 57, 2-Fluoro-6-furfurylamino-9-(tetrahydro-2H-pyran-2-yl)-9H-purine] |  |  |  |  |  |  |  |  | 111 | 138 | 10^-6 mol.l^-1 | 68.4 (± 8) % | 132 | 149 | 183.9 (± 24) % | 112.8 (± 11) % | 10^-7 mol.1^-1 | 10^-6 mol.1^-1 |
| Fc1nc(NCc2ccccc2)c2ncn(C3CCCCO3)c2n1 (stereo not drawn) [Compound 64, 2-Fluoro-6-benzylamino-9-(tetrahydro-2H-pyran-2-yl)-9H-purine] |  |  |  |  |  |  |  |  | 110 | 128 | 10^-6 mol.l^-1 | 61.2 (± 3) % | 124 | 121 | 168.9 (± 16) % | 108.9 (± 8) % | 10^-7 mol.1^-1 | 10^-6 mol.1^-1 |
| COc1ccc(CNc2nc(F)nc3c2ncn3C2CCCCO2)cc1 (stereo not drawn) [Compound 68, 2-Fluoro-6-[(4-methoxybenzyl)amino]-9-(tetrahydro-2H-pyran-2-yl)-9H-purine] |  |  |  |  |  |  |  |  | 155 | > 167 |  |  | > 167 | > 167 |  | 118.6 (± 9) % |  | 10^-6 mol.1^-1 |
| C/C(=C/CNc1nc(F)nc2c1ncn2C1CCCCO1)CO (stereo not drawn) [Compound 71] |  | 10^-4 mol.l^-1 | 113 (± 18) % | > 167 | > 167 | > 167 |  |  |  |  | 10^-6 mol.l^-1 | 71.8 (± 7) % |  |  | 172.5 (± 14) % | 111.1 (± 6) % | 10^-7 mol.1^-1 | 10^-6 mol.1^-1 |
| CC(CO)CCNc1nc(F)nc2c1ncn2C1CCCCO1 (stereo not drawn) [Compound 72] |  | 10^-4 mol.l^-1 | 103 (± 7) % | > 167 | > 167 | > 167 |  |  |  |  | 10^-6 mol.l^-1 | 68.5 (± 2) % |  |  | 161.3 (± 21) % | 104.8 (± 7) % | 10^-7 mol.1^-1 | 10^-6 mol.1^-1 |
